Reference: patent US20100324067A1, “TETRACYCLIC DIPYRANO-COUMARIN COMPOUNDS WITH ANTI-HIV AND ANTI-MYCOBACTERIUM TUBERCULOSIS ACTIVITIES” (priority 2007, published 2010)
Converted amounts (≈) assume the structure as drawn. Where two headings read alike, the source gives them in different places.

Key:
HIV-1 = assay: Inhibitory activity against HIV-1 (literature method, Chen et al. J Virol 1997); settings: for inhibition at 1 µM: Human immunodeficiency virus 1, read-out: Anti-HIV (%, 1.0 μM); for EC50: Human immunodeficiency virus 1; for Therapeutic index (TI) = 50% cytotoxicity doses/50% effective dose: value in brackets after EC50
Protocol: Inhibitory activity of the coumarin derivatives of the present invention against HIV-1.
Inhibitory activity of the compounds against HIV-1 is assayed using the literature method. The experimental conditions, procedures, reagents and so on of the experiment are referred to the reference of “ZHIWEI CHEN, PEI ZHOU, DAVID D. HO, et al. Genetically divergent strains of simian immuno-deficiency virus use CCR5 as a coreceptor for entry. Journal of Virology, 1997, 71(4): 2705-2714”.

[1] = tested on: Mycobacterium tuberculosis H37Rv (ATCC 27294); assay: Microplate Alamar Blue Assay (MABA) in BACTEC 12B medium (TAACF screen); assay type: cell-based
[2] = read-out: anti-TB active compound (MIC90 less than 10 μg/mL), classification

SMILES | inhibition at 1 µM (HIV-1) [%] | melting point [°C] | MIC90 ([1]; MABA, H37Rv, read-out: MIC90) [µg/mL] | IC50 ([1]; MABA, H37Rv, read-out: IC50) [µg/mL] | other results
CCCc1cc(=O)oc2c3c(c4c(c12)OC(C)(C)C=C4)OC(C)CC3=O (stereo not shown) [Example 11, 6,6,10-trimethyl-4-n-propyl-2H,6H,12H-benzo[1,2-b:3,4-b′:5,6-b″]-tripyranyl-2,12-dione] | 73.1 | – | – | – | –
CCCc1cc(=O)oc2c3c(c4c(c12)OC(C)(C)C=C4)OC(C)(C)CC3=O [Example 12, 6,6,10,10-tetramethyl-4-n-propyl-2H,6H,12H-benzo[1,2-b:3,4-b′:5,6-b″]-tripyranyl-2,12-dione] | 68.3 | 110 to 112 | – | – | EC50 (HIV-1): 640 nM; Therapeutic index (TI) = 50% cytotoxicity doses/50% effective dose (HIV-1): 47-140
CCCc1cc(=O)oc2c3c(c4c(c12)OC(C)(C)C=C4)OC(CCC)CC3=O (stereo not shown) [Example 14, 6,6-dimethyl-4,10-di-n-propyl-2H,6H,12H-benzo[1,2-b:3,4-b′:5,6-b″]-tripyranyl-2,12-dione] | 61.9 | – | 6.44 (≈ 16.8 µM) | – | EC50 (HIV-1): 32.5 nM; anti-HIV-1 activity in vitro compared to (+)-calanolide A (HIV-1; in words): much higher inhibitory activity; therapeutic index, in words (HIV-1; in words): high therapeutic index; Therapeutic index (TI) = 50% cytotoxicity doses/50% effective dose (HIV-1): 102-308; IC50 [1]: 5.72 µg/mL (≈ 15 µM); MIC90 [1, 2]: < 10 µg/mL
CCCCCC1CC(=O)c2c(c3c(c4c(CCC)cc(=O)oc24)OC(C)(C)C=C3)O1 (stereo not shown) [Example 15, 6,6-dimethyl-4-n-propyl-10-n-pentyl-2H,6H,12H-benzo[1,2-b:3,4-b′:5,6-b″]-tripyranyl-2,12-dione] | 46.4 | 128 to 131 | – | – | –
CCCc1cc(=O)oc2c3c(c4c(c12)OC(C)(C)C=C4)OC(c1ccccc1)CC3=O (stereo not shown) [Example 16, 6,6-dimethyl-4-n-propyl-10-phenyl-2H,6H,12H-benzo[1,2-b:3,4-b′:5,6-b″]-tripyranyl-2,12-dione] | 62.7 | – | > 100 | – | IC50 [1]: 2.91 µg/mL (≈ 6.99 µM)
CCCc1cc(=O)oc2c3c(c4c(c12)OC(C)(C)C=C4)OCC(C)C3=O (stereo not shown) [Example 30, 6,6,11-trimethyl-4-n-propyl-2H,6H,12H-benzo[1,2-b:3,4-b′:5,6-b″]-tripyranyl-2,12-dione] | 38.9 | 133 to 134 | – | – | –
CCCc1c(F)c(=O)oc2c3c(c4c(c12)OC(C)(C)C=C4)OC(C)CC3=O (stereo not shown) [Example 31, 6,6,10-trimethyl-3-fluoro-4-n-propyl-2H,6H,12H-benzo[1,2-b:3,4-b′:5,6-b″]-tripyranyl-2,12-dione] | 45.3 | – | – | – | –
CCCCc1cc(=O)oc2c3c(c4c(c12)OC(c1ccccc1)C=C4)OC(C)CC3=O (stereo not shown) [Example 44] | 96.4 | 137 to 139 | – | – | –
CCc1cc(=O)oc2c3c(c4c(c12)OC(CC)C=C4)OC(C)CC3=O (stereo not shown) [Example 53, 10-methyl-4,6-diethyl-2H,6H,12H-benzo[1,2-b:3,4-b′:5,6-b″]-tripyranyl-2,12-dione] | – | 129 to 131 | 6.85 (≈ 20.1 µM) | 6.1 (≈ 17.9 µM) | MIC90 [1, 2]: < 10 µg/mL
CCCc1c(Cl)c(=O)oc2c3c(c4c(c12)OC(CC)C=C4)OC(C)CC3=O (stereo not shown) [Example 54, 10-methyl-4-n-propyl-6-ethyl-3-chloro-2H,6H,12H-benzo[1,2-b:3,4-b′:5,6-b″]-tripyranyl-2,12-dione] | – | 145 to 147 | 61.8 (≈ 159 µM) | 36.5 (≈ 93.9 µM) | –
CCc1c(F)c(=O)oc2c3c(c4c(c12)OC(CC)C=C4)OC(C)CC3=O (stereo not shown) [Example 55, 10-methyl-4,6-diethyl-3-fluoro-2H,6H,12H-benzo[1,2-b:3,4-b′:5,6-b″]-tripyranyl-2,12-dione] | – | 144 to 146 | 1.07 (≈ 2.99 µM) | < 0.2 | MIC90 [1, 2]: < 10 µg/mL
CCCc1c(F)c(=O)oc2c3c(c4c(c12)OC(CC)C=C4)OC(C)CC3=O (stereo not shown) [Example 56, 10-methyl-4-n-propyl-6-ethyl-3-fluoro-2H,6H,12H-benzo[1,2-b:3,4-b′:5,6-b″]-tripyrany 1-2,12-dione] | – | 147 to 149 | > 100 | 62.3 (≈ 167 µM) | –
CCCc1cc(=O)oc2c3c(c4c(c12)OC(C)(C)C=C4)OC(CN=[N+]=[N-])CC3=O (stereo not shown) [Example 58] | – | 116 to 117 | 54.9 (≈ 139 µM) | 34.5 (≈ 87.2 µM) | –
CCCc1cc(=O)oc2c3c(c4c(c12)OC(C)(C)C=C4)OC(CNC(=O)Nc1ccc(F)cc1)CC3=O (stereo not shown) [Example 60, 6,6-dimethyl-4-n-propyl-10-(p-fluorophenylureido)methylene-2H,6H,12H-benzo[1,2-b:3,4-b′:5,6-b″]-tripyranyl-2,12-dione] | – | 119 to 120.5 | > 100 | 32.5 (≈ 64.3 µM) | –
CCCc1cc(=O)oc2c3c(c4c(c12)OC(C)(C)C=C4)OC(CNS(=O)(=O)c1ccc(NC(C)=O)cc1)CC3=O (stereo not shown) [Example 61, 6,6-dimethyl-4-n-propyl-10-(p-acetylaminophenylsulfonamido)methylene-2H,6H,12H-benzo[1,2-b:3,4-b′:5,6-b″]-tripyranyl-2,12-dione] | – | 127 to 128.5 | > 100 | 17.2 (≈ 30.4 µM) | –
CCCc1cc(=O)oc2c(-c3cccn3Cc3ccccn3)c(O)c3c(c12)OC(C)(C)C=C3 [Example 68, 5-hydroxy-6-(1′-(2-pyridyl)methylene-1′H-pyrrolyl-2′-ene)-2,2-dimethyl-10-n-propyl-2H-benzo-[2,3-f]-pyranyl-8-one] | – | 171 to 173 | 44.9 (≈ 101 µM) | 33 (≈ 74.6 µM) | –
CCCCC1C=Cc2c3c(c4oc(=O)cc(CCC)c4c2O1)C(=O)C(C)CO3 (stereo not shown) [Example 77, 4-n-propyl-6-n-butyl-11-methyl-2H,6H,12H-benzo[1,2-b:3,4-b′:5,6-b″]-tripyranyl-2,12-dione] | 35.2 | 144 to 145 | – | – | –
CCCc1cc(=O)oc2c3c(c4c(c12)OC(c1ccccc1)C=C4)OCC(C)C3=O (stereo not shown) [Example 78, 4-n-propyl-6-phenyl-11-methyl-2H,6H,12H-benzo[1,2-b:3,4-b′:5,6-b″]-tripyranyl-2,12-dione] | – | 187 to 189 | > 100 | 99 (≈ 246 µM) | –
CCCc1cc(=O)oc2c3c(c4c(c12)OC(C)C=C4)OC(C)CC3=O (stereo not shown) [Example 80, 6,10-dimethyl-4-n-propyl-2H,6H,12H-benzo[1,2-b:3,4-b′:5,6-b″]-tripyranyl-2,12-dione] | – | 125 to 127 | 5.46 (≈ 16 µM) | 3.42 (≈ 10 µM) | MIC90 [1, 2]: < 10 µg/mL
CCCc1c(F)c(=O)oc2c3c(c4c(c12)OC(C)C=C4)OC(C)CC3=O (stereo not shown) [Example 84, 6,10-dimethyl-4-n-propyl-3-fluoro-2H,6H,12H-benzo[1,2-b:3,4-b′:5,6-b″]-tripyranyl-2,12-dione] | – | 150 to 153 | 27.7 (≈ 77.3 µM) | 17.3 (≈ 48.3 µM) | –
C/C=C/C1C=Cc2c3c(c4oc(=O)cc(CCC)c4c2O1)C(=O)CC(C)O3 (stereo not shown) [Example 85, 4-n-propyl-6-propenyl-1-methyl-2H,6H,12H-benzo[1,2-b:3,4-b′:5,6-b″]-tripyranyl-2,12-dione] | – | 136 to 138 | 4.86 (≈ 13.3 µM) | 2.08 (≈ 5.68 µM) | MIC90 [1, 2]: < 10 µg/mL
CCc1c(F)c(=O)oc2c3c(c4c(c12)OCC(C)=C4)OC(C)CC3=O (stereo not shown) [Example 93, 4-ethyl-3-fluoro-7,10-dimethyl-2H,6H,12H-benzo[1,2-b:3,4-b′:5,6-b″]-tripyranyl-2,12-dione] | – | 118 to 120 | > 100 | 76.2 (≈ 221 µM) | –
CCOC1c2c3c(c4oc(=O)cc(CC)c4c2OCC1C)C(=O)CC(C)O3 (stereo not shown) [Example 94, 8-ethyoxyl-7,10-dimethyl-4-ethyl-7,8,10,11-tetrahydro-6H-benzo[2,3-f;2′,3′-h]-tripyranyl-2,12-dione] | – | 174 to 176 | 16.7 (≈ 44.8 µM) | 10 (≈ 26.9 µM) | –
CCCc1cc(=O)oc2c3c(c4c(c12)OCC(C)C4OCC)OC(C)CC3=O (stereo not shown) [Example 95, 8-ethyoxyl-7,10-dimethyl-4-n-propyl-7,8,10,11-tetrahydro-6H-benzo[2,3-f;2′,3‘-h’ ]-trip yranyl-2,12-dione] | – | 198 to 201 | 34.5 (≈ 89.2 µM) | 20.1 (≈ 52 µM) | –
CCCc1cc(=O)oc2c3c(c4c(c12)OC(c1ccccc1[N+](=O)[O-])CC4OCC)OC(C)CC3=O (stereo not shown) [Example 98, 8-ethoxyl-4-n-propyl-6-(o-nitrophenyl)-10-methyl-4-n-propyl-7,8,10,11-tetrahydro-6H-benzo[2,3-f;2′,3′-h]-tripyranyl-2,12-dione] | 61 | 237 to 240 | – | – | –
CCCc1cc(=O)oc2c3c(c4c(c12)OC(c1ccccc1N)C=C4)OC(C)CC3=O (stereo not shown) [Example 99] | – | 175 to 177 | 15.5 (≈ 37.1 µM) | 7.49 (≈ 17.9 µM) | –
